The subject of this test is Staphylococcus aureus. Briefly: Minimum inhibitory concentration against methicillin-resistant Staphylococcus aureus. Type of test: functional.

Values after ≈ are worked out from the molar mass of the structure shown.

By MIC50 is commonly meant the lowest concentration that inhibits either 50% of growth or 50% of the strains tested, depending on the study. By MIC90 is commonly meant an inhibitory concentration at the 90% level, which refers to growth in some studies and to a panel of isolates in others. On to `CC1=C2OC=C(C(F)(F)F)c3ccc(C)c(c32)C(=O)C1=O`, for which the MIC50 stood at 16 µg/mL (≈ 54.4 µM) and the MIC90 was above 32 µg/mL.
Take `CC1=C2OCCc3ccc(C)c(c32)C(=O)C1=O`: the MIC50 was 16 µg/mL (≈ 70.1 µM) and the MIC90 came to 16 µg/mL (≈ 70.1 µM).
Compound `CC1=COc2c(C)cc([N+](=O)[O-])c3c(C)ccc1c23` showed an MIC50 above 32 µg/mL and an MIC90 above 32 µg/mL.
The compound `COC1=CC(=O)C(=O)C=C1C` came in with an MIC50 above 32 µg/mL and an MIC90 above 32 µg/mL.
On to `CC1=COc2c(C)ccc3c(C)ccc1c23`, for which the MIC50 was above 32 µg/mL and the MIC90 was above 32 µg/mL.
The compound `CCC1(O)COC2=C(C)C(=O)C(=O)c3c(C)ccc1c32` (configuration not stated) registered an MIC50 of 16 µg/mL (≈ 58.8 µM) and an MIC90 of 16 µg/mL (≈ 58.8 µM).
`CC1=C2OC=Cc3ccc(C)c(c32)C(=O)C1=O`: the MIC50 came to 8 µg/mL (≈ 35.4 µM) and the MIC90 was found to be 8 µg/mL (≈ 35.4 µM).
For the compound `CCC1COC2=C(C)C(=O)C(=O)c3c(C)ccc1c32` (configuration not stated), the MIC50 came out at 32 µg/mL (≈ 125 µM) and the MIC90 came out at 32 µg/mL (≈ 125 µM).
As to `CC1=C2OC=C(C(C)C)c3ccc(C)c(c32)C(=O)C1=O`, the MIC50 worked out at 4 µg/mL (≈ 14.9 µM) and the MIC90 was determined as 4 µg/mL (≈ 14.9 µM).
Take `CCOC(=O)CC1COC2=C(C)C(=O)C(=O)c3c(C)ccc1c32` (configuration not stated): the MIC50 was found to be 16 µg/mL (≈ 50.9 µM) and the MIC90 worked out at 32 µg/mL (≈ 102 µM).
As for `C=CC1=COC2=C(C)C(=O)C(=O)c3c(C)ccc1c32`, the MIC50 is above 32 µg/mL and the MIC90 is above 32 µg/mL.
Regarding `CCC1=COC2=C(C)C(=O)C(=O)c3c(C)ccc1c32`, the MIC50 came out at 4 µg/mL (≈ 15.7 µM) and the MIC90 amounted to 4 µg/mL (≈ 15.7 µM).
`CC1=C2OC=C(C#N)c3ccc(C)c(c32)C(=O)C1=O` yielded an MIC50 of 8 µg/mL (≈ 31.8 µM) and an MIC90 of 16 µg/mL (≈ 63.7 µM).
For `CCCCC1=COC2=C(C)C(=O)C(=O)c3c(C)ccc1c32`, the MIC50 was determined as 8 µg/mL (≈ 28.3 µM) and the MIC90 was determined as 8 µg/mL (≈ 28.3 µM).
The compound `CC1=C2OCC(CC(=O)O)c3ccc(C)c(c32)C(=O)C1=O` (configuration not stated) registered an MIC50 above 32 µg/mL and an MIC90 above 32 µg/mL.
Compound `CC1=C2OC=C(CCO)c3ccc(C)c(c32)C(=O)C1=O` had an MIC50 above 32 µg/mL and an MIC90 above 32 µg/mL.
With `CC1=C2OCC(C)(O)c3ccc(C)c(c32)C(=O)C1=O` (configuration not stated), the MIC50 came to 16 µg/mL (≈ 61.9 µM) and the MIC90 was above 32 µg/mL.
Compound `COC1=C(C)C(=O)C(=O)c2c(C)cccc21` showed an MIC50 above 32 µg/mL and an MIC90 above 32 µg/mL.
Compound `CC1=C2OCC(Cl)(C(F)(F)F)c3ccc(C)c(c32)C(=O)C1=O` (configuration not stated) showed an MIC50 of 16 µg/mL (≈ 48.4 µM) and an MIC90 of 16 µg/mL (≈ 48.4 µM).
As for `CC1=C2OCC(C)c3ccc(C)c(c32)C(=O)C1=O` (configuration not stated) [MANSONONE E], the MIC50 amounted to 8 µg/mL (≈ 33 µM) and the MIC90 is 16 µg/mL (≈ 66 µM).
Taken in the same sequence, the figures for `CN[C@H](CC(C)C)C(=O)N[C@H]1C(=O)N[C@@H](CC(N)=O)C(=O)N[C@H]2C(=O)N[C@H]3C(=O)N[C@H](C(=O)N[C@H](C(=O)O)c4cc(O)cc(O)c4-c4cc3ccc4O)[C@H](O)c3ccc(c(Cl)c3)Oc3cc2cc(c3O[C@@H]2O[C@H](CO)[C@@H](O)[C@H](O)[C@H]2O[C@H]2C[C@](C)(N)[C@H](O)[C@H](C)O2)Oc2ccc(cc2Cl)[C@H]1O` [VANCOMYCIN] were 2 µg/mL (≈ 1.38 µM) and 2 µg/mL (≈ 1.38 µM).

The record behind these values is ChEMBL document CHEMBL1137189, “Syntheses and anti-MRSA activities of the C3 analogs of mansonone F, a potent anti-bacterial sesquiterpenoid: insights into its structural requirements for anti-MRSA activity” (2004).
